Experimental data published in patent publication US9796711B2, “Substituted pyrazolo[3,4-b]pyridin-6-carboxylic acids and method of use” (AbbVie S.àr.l., priority 2015, dated 2017).
pEC50: −log10 of the molar value.

Key:
[1] = molecular target: T1, ΔF508-CFTR (Homo sapiens, UniProt P13569, DEL508-508); experiment: CFTR cell surface levels using HRP-tagged ΔF508-CFTR expressing CFBE cells, in the presence of a co-corrector; format: cell-based; details: HRP-tagged ΔF508-CFTR expressing CFBE cells, in the presence of 3 μM co-corrector; for pEC50: read-out: EC50
T1 construct: host or cells: CFBE41o-, doxycycline-inducible
In short: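 Cells were seeded with 0.5 μg/mL doxycycline and held 68 h at 37 °C. Test compounds plus 3 μM co-corrector (final 0.1% DMSO) were then added for 20 h at 33 °C. Washed cells received HRP substrate, and luminescence was normalized between DMSO and 3 μM co-corrector controls.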

[2] = molecular target: T1, ΔF508-CFTR; experiment: CFTR cell surface levels using HRP-tagged ΔF508-CFTR expressing CFBE cells, intrinsic corrector capacity; format: cell-based; details: for pEC50: read-out: EC50
In short: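 Here the cells express ΔF508-CFTR with horseradish peroxidase inserted in extracellular loop 4, so only rescued channel at the surface gives luminescent signal. Compounds act on their own, 20 h at the reduced temperature of 33 °C; values are percent activity relative to DMSO and a 3 μM corrector.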

[3] = HRP-tagged ΔF508-CFTR CFBE41o- cells, compounds alone (intrinsic corrector capacity), 20 hours at 33° C., positive control 3 μM corrector
[4] = HRP-tagged ΔF508-CFTR CFBE41o- cells, compounds alone (intrinsic corrector capacity), 20 hours at 33° C.
[5] = HRP-tagged ΔF508-CFTR expressing CFBE cells, intrinsic corrector capacity (no co-corrector), 33° C., 20 hours
[6] = HRP-tagged ΔF508-CFTR CFBE cells, compound alone (intrinsic corrector capacity), 20 hours at 33° C.

T1 sequence (P13569 with tags, fused parts or gaps DEL508-508): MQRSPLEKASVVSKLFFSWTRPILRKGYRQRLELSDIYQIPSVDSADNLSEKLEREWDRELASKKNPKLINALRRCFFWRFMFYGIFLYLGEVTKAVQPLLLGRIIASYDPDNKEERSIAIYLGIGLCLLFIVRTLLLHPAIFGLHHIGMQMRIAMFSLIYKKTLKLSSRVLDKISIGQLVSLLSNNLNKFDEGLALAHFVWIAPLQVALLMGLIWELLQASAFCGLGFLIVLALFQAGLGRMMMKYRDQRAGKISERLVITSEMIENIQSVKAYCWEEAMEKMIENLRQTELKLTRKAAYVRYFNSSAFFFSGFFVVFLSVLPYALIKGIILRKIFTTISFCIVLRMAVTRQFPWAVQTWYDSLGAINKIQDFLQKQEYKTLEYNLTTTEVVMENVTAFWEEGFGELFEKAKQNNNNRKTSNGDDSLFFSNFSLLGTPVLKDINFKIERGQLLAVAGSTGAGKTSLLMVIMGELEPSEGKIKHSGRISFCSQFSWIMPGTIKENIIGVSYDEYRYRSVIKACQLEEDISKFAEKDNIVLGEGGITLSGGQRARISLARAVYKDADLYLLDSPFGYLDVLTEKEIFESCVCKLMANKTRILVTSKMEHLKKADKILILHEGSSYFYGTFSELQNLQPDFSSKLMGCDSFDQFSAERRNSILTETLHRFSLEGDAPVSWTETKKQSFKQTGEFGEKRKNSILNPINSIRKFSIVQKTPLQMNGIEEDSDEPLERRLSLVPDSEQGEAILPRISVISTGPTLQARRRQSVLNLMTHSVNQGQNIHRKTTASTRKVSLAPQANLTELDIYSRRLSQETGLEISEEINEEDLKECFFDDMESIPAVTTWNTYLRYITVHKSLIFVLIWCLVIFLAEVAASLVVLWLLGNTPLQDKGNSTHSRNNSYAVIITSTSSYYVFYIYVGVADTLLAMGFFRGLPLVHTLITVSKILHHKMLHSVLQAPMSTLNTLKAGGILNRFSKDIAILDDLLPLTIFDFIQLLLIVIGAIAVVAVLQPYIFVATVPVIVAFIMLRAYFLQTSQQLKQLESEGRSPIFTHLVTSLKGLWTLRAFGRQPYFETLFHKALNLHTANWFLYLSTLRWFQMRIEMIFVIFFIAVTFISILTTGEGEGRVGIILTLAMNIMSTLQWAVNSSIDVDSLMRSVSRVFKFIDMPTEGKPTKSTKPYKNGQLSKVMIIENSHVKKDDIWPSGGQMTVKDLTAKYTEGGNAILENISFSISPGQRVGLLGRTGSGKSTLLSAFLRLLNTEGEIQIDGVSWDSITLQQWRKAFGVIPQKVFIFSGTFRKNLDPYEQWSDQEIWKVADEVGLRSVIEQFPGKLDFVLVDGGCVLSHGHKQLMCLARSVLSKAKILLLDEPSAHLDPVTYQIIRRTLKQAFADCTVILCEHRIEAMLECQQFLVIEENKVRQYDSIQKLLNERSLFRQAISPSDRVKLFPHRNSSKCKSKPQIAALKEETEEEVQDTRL

| Compound | % Activation [1] | pEC50 [1] | % Activation [2, 3] | pEC50 [2, 4] | % Activation [2, 5] | pEC50 [2, 5] | % Activation [2, 6] | pEC50 [2, 6] |
| --- | --- | --- | --- | --- | --- | --- | --- | --- |
| CN(c1ccc(-c2cc(C(=O)O)nc3c2c(C2CCC2)nn3-c2cccc(N3CCCC3)c2)cn1)C1CCOCC1 [compound 252, 3-cyclobutyl-4-{6-[methyl(oxan-4-yl)amino]pyridin-3-yl}-1-[3-(pyrrolidin-1-yl)phenyl]-1H-pyrazolo[3,4-b]pyridine-6-carboxylic acid] | 630.25% | 6.30 | 398.4% | 6.16 | – | – | – | – |
| CC(C)c1nn([C@@H]2CCC[C@@H](OCc3ccccc3)C2)c2nc(C(=O)O)cc(-c3ccc(N4CCOCC4)cc3)c12 [compound 163, 1-[(1R,3R)-3-(benzyloxy)cyclohexyl]-4-[4-(morpholin-4-yl)phenyl]-3-(propan-2-yl)-1H-pyrazolo[3,4-b]pyridine-6-carboxylic acid] | 554.5% | 6.37 | 232.43% | 6.28 | – | – | – | – |
| COc1cccc(-n2nc(C)c3c(-c4ccc(N5CCN(CC#N)CC5)cc4)cc(C(=O)O)nc32)c1 [compound 232, 4-{4-[4-(cyanomethyl)piperazin-1-yl]phenyl}-1-(3-methoxyphenyl)-3-methyl-1H-pyrazolo[3,4-b]pyridine-6-carboxylic acid] | 380.95% | 5.89 | 215.6% | 5.77 | – | – | – | – |
| COCCN(C)c1cc(C(=O)O)nc2c1c(C(C)C)nn2-c1cccc(C)c1 [compound 209, 4-[(2-methoxyethyl)(methyl)amino]-1-(3-methylphenyl)-3-(propan-2-yl)-1H-pyrazolo[3,4-b]pyridine-6-carboxylic acid] | 411.9% | 6.10 | 165.6% | 5.87 | – | – | – | – |
| CO[C@H]1CCN(c2cc(C(=O)O)nc3c2c(C)nn3-c2ccccc2)C1 [compound 296, 4-[(3S)-3-methoxypyrrolidin-1-yl]-3-methyl-1-phenyl-1H-pyrazolo[3,4-b]pyridine-6-carboxylic acid] | 164% | 5.60 | 29.42% | 5.38 | – | – | – | – |
| Cc1nn(-c2ccccc2)c2nc(C(=O)O)cc(N3CCC4(CC3)CN(C)C(=O)CO4)c12 [compound 288, 3-methyl-4-(4-methyl-3-oxo-1-oxa-4,9-diazaspiro[5.5]undecan-9-yl)-1-phenyl-1H-pyrazolo[3,4-b]pyridine-6-carboxylic acid] | 128% | 5.12 | 20.49% | 5.12 | – | – | – | – |
| Cc1nn(-c2ccccc2)c2nc(C(=O)O)cc(N3CC[C@@H](F)C3)c12 [compound 298, 4-[(3R)-3-fluoropyrrolidin-1-yl]-3-methyl-1-phenyl-1H-pyrazolo[3,4-b]pyridine-6-carboxylic acid] | 206.45% | 5.61 | 52.345% | 5.60 | – | – | – | – |
| Cc1nn(-c2ccccc2)c2nc(C(=O)O)cc(-c3ccc(N(C)C4CCOCC4)nc3)c12 [compound 168, 3-methyl-4-{6-[methyl(oxan-4-yl)amino]pyridin-3-yl}-1-phenyl-1H-pyrazolo[3,4-b]pyridine-6-carboxylic acid] | 379.07% | 6.16 | 190.23% | 5.89 | – | – | – | – |
| COC(=O)N1CCN(c2ccc(-c3cc(C(=O)O)nc4c3c(C)nn4-c3ccccc3)cc2)CC1 [compound 70, 4-{4-[4-(methoxycarbonyl)piperazin-1-yl]phenyl}-3-methyl-1-phenyl-1H-pyrazolo[3,4-b]pyridine-6-carboxylic acid] | 355.6% | 6.19 | 160.8% | 6.04 | – | – | – | – |
| CC(C)c1nn(-c2ccc(F)cc2)c2nc(C(=O)O)cc(N3CCN4CCC[C@@H]4C3)c12 [compound 770, 1-(4-fluorophenyl)-4-[(8aR)-hexahydropyrrolo[1,2-a]pyrazin-2(1H)-yl]-3-(propan-2-yl)-1H-pyrazolo[3,4-b]pyridine-6-carboxylic acid] | 234.5% | 6.05 | – | – | 85.33% | 5.78 | – | – |
| O=C(O)c1cc(OCCC2OCCCO2)c2c(C3CCC3)nn(-c3ccccc3)c2n1 [compound 488, 3-cyclobutyl-4-[2-(1,3-dioxan-2-yl)ethoxy]-1-phenyl-1H-pyrazolo[3,4-b]pyridine-6-carboxylic acid] | 261.9% | 6.34 | – | – | 95.49% | 6.12 | – | – |
| Cc1nn(-c2ccccc2)c2nc(C(=O)O)cc(OCC3(CF)CC3)c12 [compound 387, 4-{[1-(fluoromethyl)cyclopropyl]methoxy}-3-methyl-1-phenyl-1H-pyrazolo[3,4-b]pyridine-6-carboxylic acid] | 224.5% | 5.78 | 65.365% | 5.78 | – | – | – | – |
| O=C(O)c1cc(N2CCC(C(F)CO)CC2)c2c(C3CCC3)nn(-c3ccccc3)c2n1 (centres unmarked) [compound 520, 3-cyclobutyl-4-[4-(1-fluoro-2-hydroxyethyl)piperidin-1-yl]-1-phenyl-1H-pyrazolo[3,4-b]pyridine-6-carboxylic acid] | 450.25% | 6.62 | – | – | 213.9% | 6.23 | – | – |
| O=C(O)c1cc(N2CCC(N3CCC(F)C3)CC2)c2c(C3CCC3)nn(-c3ccc(F)cc3)c2n1 (centres unmarked) [compound 846, 3-cyclobutyl-1-(4-fluorophenyl)-4-[4-(3-fluoropyrrolidin-1-yl)piperidin-1-yl]-1H-pyrazolo[3,4-b]pyridine-6-carboxylic acid] | 495.1% | 6.01 | – | – | 317.9% | 6.06 | – | – |
| CC1(CO)CN(c2cc(C(=O)O)nc3c2c(C2CCC2)nn3-c2ccccc2)C1 [compound 511, 3-cyclobutyl-4-[3-(hydroxymethyl)-3-methylazetidin-1-yl]-1-phenyl-1H-pyrazolo[3,4-b]pyridine-6-carboxylic acid] | 214.6% | 5.99 | – | – | 56.48% | 5.48 | – | – |
| N#CC1CCN(C2CCN(c3cc(C(=O)O)nc4c3c(C3CCC3)nn4-c3ccc(F)cc3)CC2)CC1 [compound 860, 4-(4-cyano[1,4′-bipiperidin]-1′-yl)-3-cyclobutyl-1-(4-fluorophenyl)-1H-pyrazolo[3,4-b]pyridine-6-carboxylic acid] | 576.25% | 6.38 | – | – | 383% | 6.29 | – | – |
| O=C(O)c1cc(N2CCC(N3CCOCC3)CC2)c2c(C3CCC3)nn(-c3ccc(OCCF)nc3)c2n1 [compound 917] | 306.95% | 5.78 | – | – | – | – | 116.67% | 5.78 |
| CC(C)c1nn(C2CCN(CC(F)(F)F)CC2)c2nc(C(=O)O)cc(-c3ccc(N4CCOCC4)cc3)c12 [compound 117, 4-[4-(morpholin-4-yl)phenyl]-3-(propan-2-yl)-1-[1-(2,2,2-trifluoroethyl)piperidin-4-yl]-1H-pyrazolo[3,4-b]pyridine-6-carboxylic acid] | 229.45% | 6.12 | 70.77% | 5.96 | – | – | – | – |
| CN1CCC[C@H](Oc2cc(C(=O)O)nc3c2c(C2CCC2)nn3-c2ccccc2)C1 [compound 494, 3-cyclobutyl-4-{[(3S)-1-methylpiperidin-3-yl]oxy}-1-phenyl-1H-pyrazolo[3,4-b]pyridine-6-carboxylic acid] | 196.7% | 5.94 | – | – | 65.56% | 5.48 | – | – |
| CC(C)c1nn(-c2ccc(F)cc2)c2nc(C(=O)O)cc(N3CCC4(CCO4)CC3)c12 [compound 398, 1-(4-fluorophenyl)-4-(1-oxa-7-azaspiro[3.5]nonan-7-yl)-3-(propan-2-yl)-1H-pyrazolo[3,4-b]pyridine-6-carboxylic acid] | 275.7% | 6.13 | – | – | 96.49% | 5.89 | – | – |
| CC(C)c1nn(C2CCCCC2)c2nc(C(=O)O)cc(-c3ccc(N4CCOC(C)(C)C4)nc3)c12 [compound 197, 1-cyclohexyl-4-[6-(2,2-dimethylmorpholin-4-yl)pyridin-3-yl]-3-(propan-2-yl)-1H-pyrazolo[3,4-b]pyridine-6-carboxylic acid] | 445.2% | 6.36 | 219.25% | 6.19 | – | – | – | – |
| Cc1nn(-c2ccccc2)c2nc(C(=O)O)cc(-c3ccc(NC4CCOCC4)cc3)c12 [compound 145, 3-methyl-4-{4-[(oxan-4-yl)amino]phenyl}-1-phenyl-1H-pyrazolo[3,4-b]pyridine-6-carboxylic acid] | 368.6% | 6.07 | 190.2% | 5.84 | – | – | – | – |
| O=C(O)c1cc(N2CCC3C(CCN3C3CCOCC3)C2)c2c(C3CCC3)nn(-c3ccc(F)cc3)c2n1 (centres unmarked) [compound 903, 3-cyclobutyl-1-(4-fluorophenyl)-4-[1-(oxan-4-yl)octahydro-5H-pyrrolo[3,2-c]pyridin-5-yl]-1H-pyrazolo[3,4-b]pyridine-6-carboxylic acid] | 480.55% | 6.96 | – | – | 275.8% | 6.48 | – | – |
